Experimental data reported in the supplement of paper PMC6965134.
± gives the standard deviation of the averaged measurements.

Assay: TIMS collisional cross section (CCS, N2) of the lipid ion; higher = larger ion cross section
Settings: ionization mode: positive, one isomer drawn

Row | Structure (SMILES) | TIMS collisional cross section (sample type: HeLa) [Å²] | TIMS collisional cross section (sample type: Liver) [Å²] | TIMS collisional cross section (sample type: plasma) [Å²]
1 | CC/C=C\C/C=C\C/C=C\C/C=C\C/C=C\C/C=C\CCC(=O)OC[C@@H](COC(=O)CCCCCCC/C=C\CCCCCC)OC(=O)CC/C=C\C/C=C\C/C=C\C/C=C\C/C=C\C/C=C\CC [TG 16:1_22:6_22:6] (ion (formula + adduct): [C63H96O6+NH4] 1+) | 329.5 |  | 
2 | CCCCCCC/C=C\CCCCCCCC(=O)O[C@@H](COC(=O)CCCCCCC/C=C\CCCCCCCC)COC(=O)CCCCCCCCCCCCCCCC [TG 17:0_17:1_18:1] (ion (formula + adduct): [C55H102O6+NH4] 1+) | 322.1 | 322.4 | 322.7
3 | CCCCCCCC/C=C\CCCCCCCC(=O)OC[C@@H](COC(=O)CCCCCCCCCCCCCCCC)OC(=O)CCCCCCCCCCCCCCCCC [TG 17:0_18:0_18:1] (ion (formula + adduct): [C56H106O6+NH4] 1+) | 327.3 | 327.7 | 327.4
4 | CCCCCCCC/C=C\CCCCCCCC(=O)OC[C@@H](COC(=O)CCCCCCCCCCCCCCCC)OC(=O)CCCCCCC/C=C\CCCCCCCC [TG 17:0_18:1_18:1] (ion (formula + adduct): [C56H104O6+NH4] 1+) |  |  | 325.5
5 | CCCCC/C=C\C/C=C\CCCCCCCC(=O)OC[C@@H](COC(=O)CCCCCCCCCCCCCCCC)OC(=O)CCCCCCC/C=C\CCCCCCCC [TG 17:0_18:1_18:2] (ion (formula + adduct): [C56H102O6+NH4] 1+) |  | 322.9 | 323.2
6 | CCCCCCCC/C=C\CCCCCCCCCC(=O)OC[C@@H](COC(=O)CCCCCCCCCCCCCCCC)OC(=O)CCCCCCC/C=C\CCCCCCCC [TG 17:0_18:1_20:1] (ion (formula + adduct): [C58H108O6+NH4] 1+) | 330.7 | 331.2 | 332
7 | CCCCC/C=C\C/C=C\CCCCCCCCCC(=O)OC[C@@H](COC(=O)CCCCCCCCCCCCCCCC)OC(=O)CCCCCCC/C=C\CCCCCCCC [TG 17:0_18:1_20:2] (ion (formula + adduct): [C58H106O6+NH4] 1+) |  |  | 329.3
8 | CCCCCCCC/C=C\CCCCCCCC(=O)O[C@H](COC(=O)CCCCCCCCCCCCCCCC)COC(=O)CCCCCCCCCCCCCCCCCCCCC [TG 17:0_18:1_22:0] (ion (formula + adduct): [C60H114O6+NH4] 1+) |  | 338.8 | 338.7
9 | CCCCC/C=C\C/C=C\C/C=C\C/C=C\CCCC(=O)OC[C@@H](COC(=O)CCCCCCCCCCCCCCCC)OC(=O)CCCCCCC/C=C\C/C=C\CCCCC [TG 17:0_18:2_20:4] (ion (formula + adduct): [C58H100O6+NH4] 1+) |  | 326.4 | 
10 | CCCCCCC/C=C\CCCCCCCC(=O)OC[C@H](COC(=O)CCCCCCC/C=C\CCCCCCCC)OC(=O)CCCCCCCCCCCCCCCCC [TG 17:1_18:0_18:1] (ion (formula + adduct): [C56H104O6+NH4] 1+) |  | 325.6 | 
11 | CCCCCCC/C=C\CCCCCCCC(=O)OC[C@H](COC(=O)CCCCCCC/C=C\CCCCCCCC)OC(=O)CCCCCCC/C=C\CCCCCCCC [TG 17:1_18:1_18:1] (ion (formula + adduct): [C56H102O6+NH4] 1+) | 323.2 |  | 
12 | CCCCC/C=C\C/C=C\CCCCCCCC(=O)OC[C@@H](COC(=O)CCCCCCC/C=C\CCCCCCC)OC(=O)CCCCCCC/C=C\CCCCCCCC [TG 17:1_18:1_18:2] (ion (formula + adduct): [C56H100O6+NH4] 1+) | 320.8 |  | 320.6
13 | CCCCCCC/C=C\CCCCCCCC(=O)OC[C@H](COC(=O)CCCCCCCCCCCCCCCCCC)OC(=O)CCCCCCC/C=C\CCCCCCCC [TG 17:1_18:1_19:0] (ion (formula + adduct): [C57H106O6+NH4] 1+) |  | 328.8 | 
14 | CCCCC/C=C\C/C=C\C/C=C\CCCCCCCCC(=O)OC[C@@H](COC(=O)CCCCCCC/C=C\CCCCCCC)OC(=O)CCCCCCC/C=C\CCCCCCCC [TG 17:1_18:1_22:3] (ion (formula + adduct): [C60H106O6+NH4] 1+) | 332 |  | 
15 | CC/C=C\C/C=C\C/C=C\C/C=C\C/C=C\CCCCCC(=O)OC[C@@H](COC(=O)CCCCCCC/C=C\CCCCCCC)OC(=O)CCCCCCC/C=C\CCCCCCCC [TG 17:1_18:1_22:5] (ion (formula + adduct): [C60H102O6+NH4] 1+) | 328.8 |  | 
16 | CC/C=C\C/C=C\C/C=C\C/C=C\C/C=C\C/C=C\CCC(=O)OC[C@@H](COC(=O)CCCCCCC/C=C\CCCCCCC)OC(=O)CCCCCCC/C=C\CCCCCCCC [TG 17:1_18:1_22:6] (ion (formula + adduct): [C60H100O6+NH4] 1+) | 328.2 |  | 
17 | CCCCC/C=C\C/C=C\CCCCCCCC(=O)OC[C@@H](COC(=O)CCCCCCC/C=C\CCCCCCC)OC(=O)CCCCCCC/C=C\C/C=C\CCCCC [TG 17:1_18:2_18:2] (ion (formula + adduct): [C56H98O6+NH4] 1+) |  | 317.5 | 318.3

Row | Structure (SMILES) | TIMS collisional cross section (sample type: HeLa) [Å²] | TIMS collisional cross section (sample type: Liver) [Å²] | TIMS collisional cross section (sample type: plasma) [Å²]
18 | CC/C=C\C/C=C\C/C=C\CCCCCCCC(=O)OC[C@@H](COC(=O)CCCCCCC/C=C\CCCCCCC)OC(=O)CCCCCCC/C=C\C/C=C\CCCCC [TG 17:1_18:2_18:3] (ion (formula + adduct): [C56H96O6+NH4] 1+) |  |  | 317.2
19 | CCCCC/C=C\C/C=C\C/C=C\C/C=C\CCCC(=O)OC[C@@H](COC(=O)CCCCCCC/C=C\CCCCCCC)OC(=O)CCCCCCC/C=C\C/C=C\CCCCC [TG 17:1_18:2_20:4] (ion (formula + adduct): [C58H98O6+NH4] 1+) |  | 322.8 | 
20 | CCCCCCC/C=C\CCCCCCCC(=O)OC[C@H](COC(=O)CCCCCCCCCCC/C=C\CCCCCCCC)OC(=O)CCCCCCCCC/C=C\CCCCCCCC [TG 17:1_20:1_22:1] (ion (formula + adduct): [C62H114O6+NH4] 1+) |  | 340 | 
21 | CCCC/C=C\C/C=C\CCCCCCCC(=O)OC[C@H](COC(=O)CCC/C=C\C/C=C\C/C=C\C/C=C\CCCCC)OC(=O)CCCCCCC/C=C\C/C=C\CCCCC [TG 17:2_18:2_20:4] (ion (formula + adduct): [C58H96O6+NH4] 1+) |  | 322.2 | 
22 | CCCCCCCC/C=C\CCCCCCCC(=O)OC[C@@H](COC(=O)CCCCCCCCCCCCCCCCC)OC(=O)CCCCCCCCCCCCCCCCC [TG 18:0_18:0_18:1] (ion (formula + adduct): [C57H108O6+NH4] 1+) |  |  | 330.6
23 | CCCCCCCCCCCCCCCCCCCCCC(=O)OC[C@@H](COC(=O)CCCCCCCCCCCCCCCCC)OC(=O)CCCCCCCCCCCCCCCCC [TG 18:0_18:0_22:0] (ion (formula + adduct): [C61H118O6+NH4] 1+) |  | 344.1 | 
24 | CCCCCCCC/C=C\CCCCCCCC(=O)OC[C@@H](COC(=O)CCCCCCCCCCCCCCCCC)OC(=O)CCCCCCC/C=C\CCCCCCCC [TG 18:0_18:1_18:1] (ion (formula + adduct): [C57H106O6+NH4] 1+) |  |  | 328.45 ± 0.49
25 | CCCCC/C=C\C/C=C\CCCCCCCC(=O)OC[C@@H](COC(=O)CCCCCCCCCCCCCCCCC)OC(=O)CCCCCCC/C=C\CCCCCCCC [TG 18:0_18:1_18:2] (ion (formula + adduct): [C57H104O6+NH4] 1+) | 325.1 | 326.4 | 326.25 ± 0.49
26 | CC/C=C\C/C=C\C/C=C\CCCCCCCC(=O)OC[C@@H](COC(=O)CCCCCCCCCCCCCCCCC)OC(=O)CCCCCCC/C=C\CCCCCCCC [TG 18:0_18:1_18:3] (ion (formula + adduct): [C57H102O6+NH4] 1+) |  | 324.1 | 
27 | CCCCCCCC/C=C\CCCCCCCCCC(=O)OC[C@@H](COC(=O)CCCCCCCCCCCCCCCCC)OC(=O)CCCCCCC/C=C\CCCCCCCC [TG 18:0_18:1_20:1] (ion (formula + adduct): [C59H110O6+NH4] 1+) | 333.7 |  | 334.1
28 | CCCCCCCC/C=C\CCCCCCCC(=O)O[C@H](COC(=O)CCCCCCCCCCCCCCCCC)COC(=O)CCCCCCCCCCCCCCCCCCCCC [TG 18:0_18:1_22:0] (ion (formula + adduct): [C61H116O6+NH4] 1+) | 341.8 | 342 | 341.9
29 | CCCCCCCC/C=C\CCCCCCCCCCCC(=O)OC[C@@H](COC(=O)CCCCCCCCCCCCCCCCC)OC(=O)CCCCCCC/C=C\CCCCCCCC [TG 18:0_18:1_22:1] (ion (formula + adduct): [C61H114O6+NH4] 1+) | 339.3 |  | 
30 | CCCCC/C=C\C/C=C\C/C=C\CCCCCCCCC(=O)OC[C@@H](COC(=O)CCCCCCCCCCCCCCCCC)OC(=O)CCCCCCC/C=C\CCCCCCCC [TG 18:0_18:1_22:3] (ion (formula + adduct): [C61H110O6+NH4] 1+) | 336.5 |  | 
31 | CC/C=C\C/C=C\C/C=C\C/C=C\C/C=C\C/C=C\CCC(=O)OC[C@@H](COC(=O)CCCCCCCCCCCCCCCCC)OC(=O)CCCCCCC/C=C\CCCCCCCC [TG 18:0_18:1_22:6] (ion (formula + adduct): [C61H104O6+NH4] 1+) | 333.1 | 333.4 | 
32 | CCCCC/C=C\C/C=C\CCCCCCCCCC(=O)OC[C@@H](COC(=O)CCCCCCCCCCCCCCCCC)OC(=O)CCCCCCC/C=C\C/C=C\CCCCC [TG 18:0_18:2_20:2] (ion (formula + adduct): [C59H106O6+NH4] 1+) |  | 330.3 | 
33 | CCCCC/C=C\C/C=C\C/C=C\C/C=C\CCCCCC(=O)OC[C@@H](COC(=O)CCCCCCCCCCCCCCCCC)OC(=O)CCCCCCC/C=C\C/C=C\CCCCC [TG 18:0_18:2_22:4] (ion (formula + adduct): [C61H106O6+NH4] 1+) | 335.4 |  | 
